Assay results reported in patent US7820642B2, “Nandrolone 17β-carbonates” (The United States of America as represented by the …, priority 2005, dated 2010).
Entries after “also recorded” stand apart in the source; their conditions may differ.

Columns and labels:
Type in all cases: in vivo, rat
[1] = tested on: castrate Sprague-Dawley male rats; experiment: Androgenic activity, Hershberger test (ventral prostate weight)
Protocol: The androgenic activity was tested as follows (see, Hershberger et al., Proc. Soc. Exptl. Biol. Med., 83: 175-180 (1953)). Immature (approximately 21 day old) male rats of the Sprague-Dawley strain were orchidectomized under METOFANE® anesthesia and randomly assigned to groups of ten animals for each dose level of test material and vehicle controls. Animals were maintained under standard conditions of housing and had free access to food and water. Illumination was controlled for 14-hour periods of light and 10 hours of darkness. Test compounds were dissolved in 10% ethanol/sesame oil and administered by gavage (oral) or subcutaneous injection daily for seven consecutive days starting on the day of surgery. Animals were sacrificed 24 hours after the last dose and the ventral prostate and seminal vesicles excised, cleaned of fat and connective tissue, blotted on moist filter paper and weighed to the nearest 0.1 mg. Ventral prostate weight was used as the endpoint because ventral prostate is the more sensitive organ to androgenic stimulation.
Statistical analysis was performed by conventional methods using a PROPHET data management system operating on SUN Microsystems OS 4.1.1 (see e.g., Bliss, Cl (1952) The Statistics of Bioassay, New York, Academic Press; Hollister, C (1988), Nucleic Acids Research, 16:1873-1875.
Each data point represents the mean (n=10) and standard error of the mean (SEM) prostate weight for each dose level. The potency ratio and 95% confidence index are set forth below.

[2] = tested on: castrate Sprague-Dawley male rats; experiment: Duration of androgenic activity after a single subcutaneous injection (ventral prostate weight, AUC); conditions: for AUC of ventral prostate weight (duration of androgenic activity): 14 weeks
Protocol: Duration of androgenic activity was determined as follows. Immature (22 days of age) male rats of the Sprague-Dawley CD strain were orchidectomized under METOFANE anesthesia and randomly assigned to groups of forty or more animals. Animals were maintained under standard conditions of housing and had free access to food and water. Illumination was controlled for 14-hour periods of light and 10 hours of darkness. Animals received a single subcutaneous injection of 0.6 mg of test material in aqueous suspending vehicle (ASV) and/or an oily vehicle (10% ethanol/sesame oil, sesame oil containing 5 mg/ml chlorobutanol as a preservative or ethyl oleate) on the day of surgery. Controls received vehicle alone. Testosterone enanthate in sesame oil was used as a standard. In cases where the test material was not solid at room temperature, i.e., a wax or oil, 10% ethanol/sesame oil or ethyl oleate was used as a vehicle. Five rats from each group were sacrificed at weekly or biweekly intervals and seminal vesicle and ventral prostate glands were excised, cleaned of adherent fat and connective tissue and weighed to the nearest 0.1 mg. Ventral prostate weight was used as the endpoint because it is the more sensitive organ to androgenic stimulation. Area under the curve (AUC) was calculated by the trapezoidal rule.
Each data point represents the mean (n=5) and standard error of the mean (SEM) prostate weight for each time period. […] In FIG. 8, the data for 1.2 mg dose groups are shown together with historical data for testosterone undecanoate in aqueous suspension and testosterone enanthate in sesame oil as standards. Both testosterone undecanoate and testosterone enanthate are commercially available.

[3] = Serum levels of dimethandrolone (CDB-1321) and immunoreactive metabolites by radioimmunoassay; parameters: AUC of serum concentration of dimethandrolone and immunoreactive metabolites: unit not given here; conditions: n=5, FIG. 9
Protocol: Serum levels of testosterone and CDB-1321 were determined as follows. Rats from a duration of androgenic activity study were exsanguinated at autopsy, serum prepared by allowing blood to clot at room temperature and the sample frozen for subsequent radioimmunoassay. A radioimmunoassay for the free alcohol, 7a, 11β-dimethyl-19-nortestosterone, was developed using antisera generated in rabbits against the 3-carboxymethyloxime-BSA conjugate and employing the corresponding histamine conjugate for iodination as tracer.

[4] = tested on: luteinizing hormone (rLH); experiment: Serum rLH in castrate male rats
Protocol: FIG. 14 depicts the serum levels of rLH as a function of time for groups 2 and 4 of the animals. Serum rLH were measured in the blood from castrate male rats following fourteen daily 12 mg/kg oral doses of CDB-4719A (dimethandrolone 17β-decylcarbonate, filled circles, group 2) or CDB-4521C (dimethandrolone 17β-undecanoate, open triangles, group 4) in 10% ethanol/sesame oil on days 0-13. Samples from weeks −1 to 6 or from weeks 7 to 9 and repeats were assayed as described in the protocols MEL-480AD using [^125I]-rLH or MEL-480AE, AG using [^125I]-rLH. The limit of detection shown as dotted line, or EC90, was the mean of 0.13, 0.14, or 0.16 in the first assay and 0.17, 0.22, or 0.21 ng/ml in the second series of assays based on 200 μl of serum per tube.
FIG. 15 depicts the serum levels of rLH as a function of time for groups 1 and 3 of the animals. Serum rLH were measured in the blood from castrate male rats following a single 12 mg/kg subcutaneous injection of CDB-4719A (dimethandrolone 17β-decylcarbonate, filled circles, group 1) or CDB-4521C (dimethandrolone 17β-undecanoate, open triangles, group 3) in an aqueous suspending vehicle on day 0. Samples from weeks −1 to 6 or from weeks 7 to 22 and repeats were assayed as described in the protocols MEL-480AD using [^125I]-rLH or MEL-480AE, AG, AH using [^125I]-rLH. The limit of detection shown as dotted line, or EC90, was the mean of 0.13, 0.14, or 0.16 in the first assay and 0.17, 0.22, or 0.21 ng/ml in the second series of assays based on 200 μl of serum per tube.
Carbonates of the invention, in embodiments, can be used to suppress luteinizing hormone in a mammal for extended periods of time. […] CDB-4719A (dimethandrolone 17β-decylcarbonate) was administered to castrate male rats, daily at 12 mg/kg oral doses, and CDB-4521C (dimethandrolone 17β-undecanoate) was administered in 10% ethanol/sesame oil, on days 0-13. […] This observation could have advantageous clinical implications, for example, in obtaining sustained suppression of the luteinizing hormone or hormone replacement therapy. In addition, this could have an advantage by providing a facile treatment using oral compositions such as tablets or capsules of the carbonates of the invention in suppressing hormone levels. Such treatment can be advantageous relative to a treatment involving parenteral (e.g., subcutaneous) administration of a drug such as the ester drug. Patient compliance is better with oral formulations than injections.
FIG. 15 provides a comparison between CDB-4719A (dimethandrolone 17β-decylcarbonate) and CDB-4521C (dimethandrolone 17β-undecanoate). A single dose (12 mg/kg) of the compound was administered to castrate male rats by subcutaneous injection in an aqueous suspending vehicle on day 0. The serum rLH concentration was monitored over a 22-week period and beyond.

[5] = 1.2 mg, 14-week observation period
[6] = single subcutaneous injection of 0.6 mg in aqueous suspending vehicle
[7] = single subcutaneous injection of 1.2 mg in aqueous suspending vehicle
[8] = fourteen daily 12 mg/kg oral doses in 10% ethanol/sesame oil, days 0-13, FIG. 14

In the case of `CCCCCCCCCCOC(=O)O[C@H]1CC[C@H]2[C@H]3[C@H]([C@@H](C)C[C@]12C)[C@H]1CCC(=O)C=C1C[C@H]3C` [CDB-4719, 17β-Decyloxycarbonyloxy-7α,11β-dimethylestr-4-en-3-one], the “Androgenic activity Potency Ratio” value ([1]; oral, daily for 7 days in 10% ethanol/sesame oil, CDB 110 (methyltestosterone) = 1.000 assigned, FIG. 5, ranges did not pass all significance tests) is reported as “five to nine times”, the “Androgenic activity Potency Ratio” value ([1]; oral, daily for 7 days in 10% ethanol/sesame oil, CDB 110 (methyltestosterone) = 1.000 assigned, FIG. 5, ranges did not pass all significance tests, listed as 4719) is reported as 5.486-8.992^1,2 and the “Androgenic activity Potency Ratio, 4718 vs. 4719” value ([1]; oral, direct comparison of CDB-4718 and CDB-4719) is reported as 3.016. The “Androgenic activity Potency Ratio” value ([1]; subcutaneous injection, daily for 7 days, CBD-111 (testosterone) = 1.000 assigned, FIG. 6, footnote 2 values did not pass all significance tests) was “no more potent than testosterone standard”, the “Androgenic activity Potency Ratio” value ([1]; subcutaneous injection, daily for 7 days, CBD-111 (testosterone) = 1.000 assigned, FIG. 6, footnote 2 values did not pass all significance tests, listed as 4719) was 0.64 and the “AUC relative to testosterone enanthate in sesame oil” value [2, 5] was “more than three times greater”. The “AUC relative to testosterone undecanoate” value [2, 5] was “more than five times greater”, the “Duration of androgenic activity (in words)” value ([2]; single subcutaneous injection in aqueous vehicle) was “far more potent than testosterone; also recorded: most dramatic increase and maintenance of ventral prostate weight” and the “AUC of ventral prostate weight (duration of androgenic activity)” value [2, 6] was 1417 mg·week. The “AUC of ventral prostate weight (duration of androgenic activity)” value [2, 7] was 2764 mg·week, the “AUC of serum concentration of dimethandrolone and immunoreactive metabolites” value [3, 6] was 4151 and the “AUC of serum concentration of dimethandrolone and immunoreactive metabolites” value [3, 7] was 6010. For the same molecule, the “Serum rLH after administration was discontinued” value [4, 8] was “remained suppressed for several weeks”, the “Serum rLH during administration” value [4, 8] was “remained suppressed” and the “Serum rLH up to 16 weeks post administration” value ([4]; single 12 mg/kg subcutaneous injection in aqueous suspending vehicle on day 0, FIG. 15) was “remains suppressed”. The “Serum rLH after 16 weeks” value ([4]; single 12 mg/kg subcutaneous injection in aqueous suspending vehicle on day 0, monitored over 22 weeks, FIG. 15) was “remained suppressed even at week 22”.
